Results as given in patent publication US20230085307A1, “PYRIDAZINONE COMPOUND AND HERBICIDE” (NISSAN CHEMICAL CORPORATION, priority 2019, published 2023).

Legend:
green foxtail [1] = assay: Test Example 5: herbicidal effect by foliage application, plastic box (Table 20, symbol G); type: in vivo, green foxtail (Setaria viridis); conditions: foliage application, three weeks after application
Summary of the method: (§1)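 Plants sown in sterilized diluvial soil and grown 14 days in a greenhouse at 25° C to 30° C, then sprayed on the foliage with the compound's emulsion diluted in water to a predetermined herbicide amount. Injury to weeds and crops scored three weeks after application on a visual rating scale.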

rice flat sedge = assay: Test Example 3: herbicidal effect by foliage application, Wagner pot (Table 18, symbol E); type: in vivo, rice flat sedge (Cyperus iria)
Summary of the method: (§2)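 Plants were sown in alluvial soil held under 0.1–0.5 cm standing water and grown 14 days in a greenhouse at 25–30 °C. An emulsifiable formulation, water-diluted to the set dose, was then sprayed onto the foliage, and effects were scored three weeks later using previously defined criteria.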

green foxtail [2] = assay: Test Example 4: herbicidal effect by soil treatment (Table 19, symbol G); type: in vivo, green foxtail (Setaria viridis)
Summary of the method: (§3)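 Three weeks of greenhouse growth at 25° C. to 30° C. followed a uniform surface spray of water-diluted emulsion at a predetermined herbicide amount. Seeds had been sown beforehand under about 1.5 cm of sterilized diluvial soil. Grading followed criteria set out in an earlier test.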

blackgrass [3] = assay: Test Example 5: herbicidal effect by foliage application, plastic box (Table 20, symbol J); type: in vivo, blackgrass (Alopecurus myosuroides); conditions: foliage application, three weeks after application
Summary of the method: as §1

lambsquarters [4] = assay: Test Example 5: herbicidal effect by foliage application, plastic box (Table 20, symbol O); type: in vivo, lambsquarters (Chenopodium album); conditions: foliage application, three weeks after application
Summary of the method: as §1

Italian ryegrass [5] = assay: Test Example 4: herbicidal effect by soil treatment (Table 19, symbol K); type: in vivo, Italian ryegrass (Lolium multiflorum)
Summary of the method: as §3

barnyard grass [6] = assay: Test Example 5: herbicidal effect by foliage application, plastic box (Table 20, symbol H); type: in vivo, barnyard grass (Echinochloa crus-galli); conditions: foliage application, three weeks after application
Summary of the method: as §1

redroot pigweed [7] = assay: Test Example 4: herbicidal effect by soil treatment (Table 19, symbol N); type: in vivo, redroot pigweed (Amaranthus retroflexus)
Summary of the method: as §3

velvetleaf [8] = assay: Test Example 5: herbicidal effect by foliage application, plastic box (Table 20, symbol M); type: in vivo, velvetleaf (Abutilon theophrasti); conditions: foliage application, three weeks after application
Summary of the method: as §1

redroot pigweed [9] = assay: Test Example 5: herbicidal effect by foliage application, plastic box (Table 20, symbol N); type: in vivo, redroot pigweed (Amaranthus retroflexus); conditions: foliage application, three weeks after application
Summary of the method: as §1

blackgrass [10] = assay: Test Example 4: herbicidal effect by soil treatment (Table 19, symbol J); type: in vivo, blackgrass (Alopecurus myosuroides)
Summary of the method: as §3

lambsquarters [11] = assay: Test Example 4: herbicidal effect by soil treatment (Table 19, symbol O); type: in vivo, lambsquarters (Chenopodium album)
Summary of the method: as §3

barnyard grass [12] = assay: Test Example 4: herbicidal effect by soil treatment (Table 19, symbol H); type: in vivo, barnyard grass (Echinochloa crus-galli)
Summary of the method: as §3

southern crabgrass [13] = assay: Test Example 4: herbicidal effect by soil treatment (Table 19, symbol F); type: in vivo, southern crabgrass (Digitaria ciliaris)
Summary of the method: as §3

persian speedwell [14] = assay: Test Example 4: herbicidal effect by soil treatment (Table 19, symbol R); type: in vivo, Persian speedwell (Veronica persica)
Summary of the method: as §3

velvetleaf [15] = assay: Test Example 4: herbicidal effect by soil treatment (Table 19, symbol M); type: in vivo, velvetleaf (Abutilon theophrasti)
Summary of the method: as §3

southern crabgrass [16] = assay: Test Example 5: herbicidal effect by foliage application, plastic box (Table 20, symbol F); type: in vivo, southern crabgrass (Digitaria ciliaris); conditions: foliage application, three weeks after application
Summary of the method: as §1

wild oat [17] = assay: Test Example 4: herbicidal effect by soil treatment (Table 19, symbol I); type: in vivo, wild oat (Avena fatua)
Summary of the method: as §3

persian speedwell [18] = assay: Test Example 5: herbicidal effect by foliage application, plastic box (Table 20, symbol R); type: in vivo, Persian speedwell (Veronica persica); conditions: foliage application, three weeks after application
Summary of the method: as §1

chickweed [19] = assay: Test Example 5: herbicidal effect by foliage application, plastic box (Table 20, symbol P); type: in vivo, common chickweed (Stellaria media); conditions: foliage application, three weeks after application
Summary of the method: as §1

Chinese sprangletop = assay: Test Example 3: herbicidal effect by foliage application, Wagner pot (Table 18, symbol D); type: in vivo, chinese sprangletop (Leptochloa chinensis)
Summary of the method: as §2

chickweed [20] = assay: Test Example 4: herbicidal effect by soil treatment (Table 19, symbol P); type: in vivo, common chickweed (Stellaria media)
Summary of the method: as §3

wild oat [21] = assay: Test Example 5: herbicidal effect by foliage application, plastic box (Table 20, symbol I); type: in vivo, wild oat (Avena fatua); conditions: foliage application, three weeks after application
Summary of the method: as §1

barnyard grass [22] = assay: Test Example 3: herbicidal effect by foliage application, Wagner pot (Table 18, symbol H); type: in vivo, barnyard grass (Echinochloa crus-galli)
Summary of the method: as §2

windgrass [23] = assay: Test Example 5: herbicidal effect by foliage application, plastic box (Table 20, symbol L); type: in vivo, windgrass (Apera spica-venti); conditions: foliage application, three weeks after application
Summary of the method: as §1

windgrass [24] = assay: Test Example 4: herbicidal effect by soil treatment (Table 19, symbol L); type: in vivo, windgrass (Apera spica-venti)
Summary of the method: as §3

Italian ryegrass [25] = assay: Test Example 5: herbicidal effect by foliage application, plastic box (Table 20, symbol K); type: in vivo, Italian ryegrass (Lolium multiflorum); conditions: foliage application, three weeks after application
Summary of the method: as §1

[26] = amount of applied herbicide 320 g/ha

CCc1nn(C)c(=O)c(-c2c(-c3ccc(Cl)cc3)sc3ccc(F)cc23)c1O [2-408]
G: green foxtail, herbicidal effect grade (green foxtail [1]; 320 g/ha): 5 (Herbicidal rate of 90% or more (almost completely withered))
herbicidal effect on E: rice flat sedge (rice flat sedge; [26]): 5 (Herbicidal rate of 90% or more (almost completely withered))
herbicidal effect, G: green foxtail (green foxtail [2]; [26]): 0 (Herbicidal rate of 5% or less (almost no effect))
J: blackgrass, herbicidal effect grade (blackgrass [3]; 320 g/ha): 0 (Herbicidal rate of 5% or less (almost no effect))
O: lambsquarters, herbicidal effect grade (lambsquarters [4]; 320 g/ha): 5 (Herbicidal rate of 90% or more (almost completely withered))
herbicidal effect, K: Italian ryegrass (Italian ryegrass [5]; [26]): 0 (Herbicidal rate of 5% or less (almost no effect))
H: barnyard grass, herbicidal effect grade (barnyard grass [6]; 320 g/ha): 3 (Herbicidal rate of 40% or more and less than 70%)
herbicidal effect, N: redroot pigweed (redroot pigweed [7]; [26]): 4 (Herbicidal rate of 70% or more and less than 90%)
M: velvetleaf, herbicidal effect grade (velvetleaf [8]; 320 g/ha): 4 (Herbicidal rate of 70% or more and less than 90%)
N: redroot pigweed, herbicidal effect grade (redroot pigweed [9]; 320 g/ha): 5 (Herbicidal rate of 90% or more (almost completely withered))
herbicidal effect, J: blackgrass (blackgrass [10]; [26]): 0 (Herbicidal rate of 5% or less (almost no effect))
herbicidal effect, O: lambsquarters (lambsquarters [11]; [26]): 3 (Herbicidal rate of 40% or more and less than 70%)
herbicidal effect, H: barnyard grass (barnyard grass [12]; [26]): 0 (Herbicidal rate of 5% or less (almost no effect))
herbicidal effect, F: southern crabgrass (southern crabgrass [13]; [26]): 0 (Herbicidal rate of 5% or less (almost no effect))
herbicidal effect, R: persian speedwell (persian speedwell [14]; [26]): 0 (Herbicidal rate of 5% or less (almost no effect))
herbicidal effect, M: velvetleaf (velvetleaf [15]; [26]): 1 (Herbicidal rate of 5% or more and less than 20%)
F: southern crabgrass, herbicidal effect grade (southern crabgrass [16]; 320 g/ha): 4 (Herbicidal rate of 70% or more and less than 90%)
herbicidal effect, I: wild oat (wild oat [17]; [26]): 0 (Herbicidal rate of 5% or less (almost no effect))
R: persian speedwell, herbicidal effect grade (persian speedwell [18]; 320 g/ha): 5 (Herbicidal rate of 90% or more (almost completely withered))
P: chickweed, herbicidal effect grade (chickweed [19]; 320 g/ha): 5 (Herbicidal rate of 90% or more (almost completely withered))
herbicidal effect on D: Chinese sprangletop (Chinese sprangletop; [26]): 4 (Herbicidal rate of 70% or more and less than 90%)
herbicidal effect, P: chickweed (chickweed [20]; [26]): 0 (Herbicidal rate of 5% or less (almost no effect))
I: wild oat, herbicidal effect grade (wild oat [21]; 320 g/ha): 1 (Herbicidal rate of 5% or more and less than 20%)
herbicidal effect on H: barnyard grass (barnyard grass [22]; [26]): 4 (Herbicidal rate of 70% or more and less than 90%)
L: windgrass, herbicidal effect grade (windgrass [23]; 320 g/ha): 0 (Herbicidal rate of 5% or less (almost no effect))
herbicidal effect, L: windgrass (windgrass [24]; [26]): 0 (Herbicidal rate of 5% or less (almost no effect))
K: Italian ryegrass, herbicidal effect grade (Italian ryegrass [25]; 320 g/ha): 3 (Herbicidal rate of 40% or more and less than 70%)

CCCC(=O)Oc1c(OC)nn(C)c(=O)c1-c1c(-c2cc(Cl)ccc2OC)sc2ccccc12 [1-179]
G: green foxtail, herbicidal effect (green foxtail [1]; AAH 320 g/ha): 3 (Herbicidal rate of 40% or more and less than 70%)
herbicidal effect on E (rice flat sedge), rating 0-5 (rice flat sedge; 320 g/ha): 3 (Herbicidal rate of 40% or more and less than 70%)
G: green foxtail, herbicidal effect rating (green foxtail [2]; AAH 320 g/ha): 0 (Herbicidal rate of 5% or less (almost no effect))
J: blackgrass, herbicidal effect (blackgrass [3]; AAH 320 g/ha): 0 (Herbicidal rate of 5% or less (almost no effect))
O: lambsquarters, herbicidal effect (lambsquarters [4]; AAH 320 g/ha): 3 (Herbicidal rate of 40% or more and less than 70%)
K: Italian ryegrass, herbicidal effect rating (Italian ryegrass [5]; AAH 320 g/ha): 0 (Herbicidal rate of 5% or less (almost no effect))
H: barnyard grass, herbicidal effect (barnyard grass [6]; AAH 320 g/ha): 3 (Herbicidal rate of 40% or more and less than 70%)
N: redroot pigweed, herbicidal effect rating (redroot pigweed [7]; AAH 320 g/ha): 3 (Herbicidal rate of 40% or more and less than 70%)
M: velvetleaf, herbicidal effect (velvetleaf [8]; AAH 320 g/ha): 2 (Herbicidal rate of 20% or more and less than 40%)
N: redroot pigweed, herbicidal effect (redroot pigweed [9]; AAH 320 g/ha): 4 (Herbicidal rate of 70% or more and less than 90%)
J: blackgrass, herbicidal effect rating (blackgrass [10]; AAH 320 g/ha): 0 (Herbicidal rate of 5% or less (almost no effect))
O: lambsquarters, herbicidal effect rating (lambsquarters [11]; AAH 320 g/ha): 0 (Herbicidal rate of 5% or less (almost no effect))
H: barnyard grass, herbicidal effect rating (barnyard grass [12]; AAH 320 g/ha): 0 (Herbicidal rate of 5% or less (almost no effect))
F: southern crabgrass, herbicidal effect rating (southern crabgrass [13]; AAH 320 g/ha): 0 (Herbicidal rate of 5% or less (almost no effect))
R: persian speedwell, herbicidal effect rating (persian speedwell [14]; AAH 320 g/ha): 4 (Herbicidal rate of 70% or more and less than 90%)
M: velvetleaf, herbicidal effect rating (velvetleaf [15]; AAH 320 g/ha): 0 (Herbicidal rate of 5% or less (almost no effect))
F: southern crabgrass, herbicidal effect (southern crabgrass [16]; AAH 320 g/ha): 3 (Herbicidal rate of 40% or more and less than 70%)
I: wild oat, herbicidal effect rating (wild oat [17]; AAH 320 g/ha): 0 (Herbicidal rate of 5% or less (almost no effect))
R: persian speedwell, herbicidal effect (persian speedwell [18]; AAH 320 g/ha): 4 (Herbicidal rate of 70% or more and less than 90%)
P: chickweed, herbicidal effect (chickweed [19]; AAH 320 g/ha): 4 (Herbicidal rate of 70% or more and less than 90%)
herbicidal effect on D (Chinese sprangletop), rating 0-5 (Chinese sprangletop; 320 g/ha): 0 (Herbicidal rate of 5% or less (almost no effect))
P: chickweed, herbicidal effect rating (chickweed [20]; AAH 320 g/ha): 4 (Herbicidal rate of 70% or more and less than 90%)
I: wild oat, herbicidal effect (wild oat [21]; AAH 320 g/ha): 3 (Herbicidal rate of 40% or more and less than 70%)
herbicidal effect on H (barnyard grass), rating 0-5 (barnyard grass [22]; 320 g/ha): 4 (Herbicidal rate of 70% or more and less than 90%)
L: windgrass, herbicidal effect (windgrass [23]; AAH 320 g/ha): 1 (Herbicidal rate of 5% or more and less than 20%)
L: windgrass, herbicidal effect rating (windgrass [24]; AAH 320 g/ha): 0 (Herbicidal rate of 5% or less (almost no effect))
K: Italian ryegrass, herbicidal effect (Italian ryegrass [25]; AAH 320 g/ha): 0 (Herbicidal rate of 5% or less (almost no effect))
